Values of other authors, collected in patent US20210251944A1, “METHODS FOR TREATING A CANCER RESISTANT TO AT LEAST ONE TYROSINE KINASE INHIBITOR” (Del Mar Pharmaceuticals (BC) Ltd., priority 2012, published 2021).
Like-named read-outs stand apart in the source and are kept apart here.

Tests used:
[1] = target: glycogen synthase kinase-3β (GSK-3β) (Homo sapiens, UniProt P49841); conditions: cited from earlier work
CML = conditions: cited from earlier work; for rate of incomplete cytogenetic responses to imatinib: CML
[2] = cited from earlier work

Chain of glycogen synthase kinase-3β (GSK-3β) (P49841 whole entry, species assumed): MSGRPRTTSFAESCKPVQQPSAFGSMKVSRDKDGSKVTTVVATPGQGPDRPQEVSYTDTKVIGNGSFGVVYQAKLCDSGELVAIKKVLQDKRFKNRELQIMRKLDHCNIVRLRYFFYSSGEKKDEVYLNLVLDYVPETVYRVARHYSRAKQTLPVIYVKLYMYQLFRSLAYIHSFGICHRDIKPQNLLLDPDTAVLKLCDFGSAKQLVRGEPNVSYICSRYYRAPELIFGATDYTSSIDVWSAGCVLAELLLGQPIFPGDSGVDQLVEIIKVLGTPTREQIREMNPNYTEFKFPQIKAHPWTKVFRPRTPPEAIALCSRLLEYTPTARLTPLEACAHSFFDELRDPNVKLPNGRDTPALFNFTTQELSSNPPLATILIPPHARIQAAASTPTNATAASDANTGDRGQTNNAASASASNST

## CN1C(=O)/C(=C2/C(=O)Nc3ccccc32)c2ccccc21 [Meisoindigo, meisoindigo]
[1]
  concentration for inhibition of glycogen synthase kinase-3β (GSK-3β): 5 to 50 nM

## Cc1ccc(NC(=O)c2ccc(CN3CCN(C)CC3)cc2)cc1Nc1nccc(-c2cccnc2)n1 [imatinib]
CML; individuals in East Asia
  rate of incomplete cytogenetic responses to imatinib: ~50%
CML; individuals in Europe and North America
  rate of incomplete cytogenetic responses to imatinib: 26%
CML; chronic phase CML, first-line imatinib 400 mg/day, ELN criteria
  overall odds ratio for resistant disease, patients with the BIM deletion polymorphism compared to those without: 2.94

## O[C@H]([C@H](O)[C@@H](O)CBr)[C@H](O)CBr [Dibromodulcitol, dibromodulcitol]
[2]
  absorption by the oral route: rapid and fairly complete
